According to BindingDB's records for doi:10.1021/bi00331a002 (University of Minnesota, 1985):
pKi: −log10 of the molar value.

Molecular target: Glutamate receptor ionotropic, NMDA 1 (Rattus norvegicus, UniProt P35439)

SMILES	pKi
N[C@H](CCP(=O)(O)O)C(=O)O [D-AP4]	< 5.00
N[C@@H](Cn1oc(=O)[nH]c1=O)C(=O)O [2-amino-3-(3,5-dioxo[1,2,4]oxadiazolidin-2-yl)propionic acid]	6.59
N[C@H](CCCP(=O)(O)O)C(=O)O [CB3371309]	< 5.00
N[C@H](CC(=O)O)C(=O)O	< 5.00
N[C@@H](CC(=O)O)C(=O)O [L-Aspartic acid, 2]	5.10
N[C@@H](CCP(=O)(O)O)C(=O)O [2-Amino-4-phosphono-butyric acid]	5.82
CC(C[C@H](N)C(=O)O)P(=O)(O)O (stereo partly drawn) [gamma-methyl-APB]	5.07
CP(=O)(O)CCC(N)C(=O)O (stereo not drawn) [2-amino-4-(methylphosphino) butanoic acid]	5.42
